The source of these data is patent US20230381330A1, “ENZYME-ACTIVATED SERUM EXTENDED HALF-LIFE THERAPEUTIC CONJUGATES” (Avacta Life Sciences Limited, priority 2020, published 2023).

In one data set the test system is rats. As to the kind of experiment: EC50 / maximum tolerated dose studies in rats. In kind it is in vivo, rat. The settings on record: talabostat administered alone, FIG. 4A. As to the method: (§1) Half-maximal effective concentration (EC50) studies were undertaken to examine the difference between mice and rats administered talabostat alone (FIG. 4A) and mice and rats administered the therapeutic conjugates comprising talabostat (FIG. 4B). When talabostat is administered alone, the talabostat maximum tolerated dose (MTD) is about 3 mg/m^2 in a mouse tumor model and 0.18 mg/m^2 in rats. That is, the talabostat MTD is 1/17 the tumor model EC50 (FIG. 4A). […] Talabostat, as part of the therapeutic conjugate, can be administered to rats and mice at therapeutically effective doses.

Data set [1] concerns J774A.1 mouse macrophage cell line cells. As to the kind of experiment: LDH release (pyroptosis) in J774A.1 cells with or without rhFAPα. In kind it is cell-based. The settings on record: serial 10-fold dilutions, rhFAPα 25 nM, 24 hours, FIG. 17. As to the method: In further in vitro studies, several conjugates were tested for their ability to induce pyroptosis in J774 cells in the absence and presence of FAPα. Briefly, J774A.1 mouse macrophage cell line cells were cultured in triplicate wells with serial 10-fold dilutions of either VbP (data not shown) or one of the FAP-activated I-DASH inhibitors (Hu IgG1 Fc-6325, Hu IgG1-6325, MSA-6325, SQT-Gly V.2-6325, SQT-Gly CF-6325 or SQT-Gly CG-6325) in the presence or absence of rhFAPα at a final concentration of 25 nM for 24 hours. Each experiment included an untreated control. Following the incubation, the levels of lactate dehydrogenase (LDH, a marker of pyroptosis) released into culture supernatants were measured using the CytoTox 96 Non-radioactive Cytotoxicity Assay according to the manufacturer's instructions. The results are shown in FIG. 17 as fold-increase in LDH release.
(LDH in the medium is a marker of cell lysis.)

For another data set, the system named is G-CSF. As to conditions: mouse, in vivo; cited from earlier work.
The test system of a further data set is mouse tumor model. The data set is described as follows: EC50 / maximum tolerated dose studies in mice. The data set is classed as in vivo. The settings on record: FIG. 4A/4B. As to the method:
as §1

The structures appear in SMILES notation.

As for `CC(C)[C@H](N)C(=O)N1CCC[C@H]1B(O)O` [talabostat, Val-boroPro], the “maximum tolerated dose (MTD)” value is recorded as 0.18 mg/m^2 in the data set with rats (rats) and “about 3 mg/m^2” with mouse tumor model. For the same molecule, the “MTD as fraction of the tumor model EC50” value in the data set on rats is 1/17. The “differentiation of fold-increase in LDH release with vs without FAPα” value in data set [1] is recorded as “not the case”. Moreover, in the data set with G-CSF, the “serum G-CSF response” value is “large serum G-CSF response”.
